Broadly, the inhibition is how much of the control response was suppressed.

Assay [1] addresses T1, human ANO6 (Homo sapiens, UniProt Q4KMQ2).
T1 construct: expressed in transfected cells
T1 sequence (Q4KMQ2 1-931 isoform Q4KMQ2-2): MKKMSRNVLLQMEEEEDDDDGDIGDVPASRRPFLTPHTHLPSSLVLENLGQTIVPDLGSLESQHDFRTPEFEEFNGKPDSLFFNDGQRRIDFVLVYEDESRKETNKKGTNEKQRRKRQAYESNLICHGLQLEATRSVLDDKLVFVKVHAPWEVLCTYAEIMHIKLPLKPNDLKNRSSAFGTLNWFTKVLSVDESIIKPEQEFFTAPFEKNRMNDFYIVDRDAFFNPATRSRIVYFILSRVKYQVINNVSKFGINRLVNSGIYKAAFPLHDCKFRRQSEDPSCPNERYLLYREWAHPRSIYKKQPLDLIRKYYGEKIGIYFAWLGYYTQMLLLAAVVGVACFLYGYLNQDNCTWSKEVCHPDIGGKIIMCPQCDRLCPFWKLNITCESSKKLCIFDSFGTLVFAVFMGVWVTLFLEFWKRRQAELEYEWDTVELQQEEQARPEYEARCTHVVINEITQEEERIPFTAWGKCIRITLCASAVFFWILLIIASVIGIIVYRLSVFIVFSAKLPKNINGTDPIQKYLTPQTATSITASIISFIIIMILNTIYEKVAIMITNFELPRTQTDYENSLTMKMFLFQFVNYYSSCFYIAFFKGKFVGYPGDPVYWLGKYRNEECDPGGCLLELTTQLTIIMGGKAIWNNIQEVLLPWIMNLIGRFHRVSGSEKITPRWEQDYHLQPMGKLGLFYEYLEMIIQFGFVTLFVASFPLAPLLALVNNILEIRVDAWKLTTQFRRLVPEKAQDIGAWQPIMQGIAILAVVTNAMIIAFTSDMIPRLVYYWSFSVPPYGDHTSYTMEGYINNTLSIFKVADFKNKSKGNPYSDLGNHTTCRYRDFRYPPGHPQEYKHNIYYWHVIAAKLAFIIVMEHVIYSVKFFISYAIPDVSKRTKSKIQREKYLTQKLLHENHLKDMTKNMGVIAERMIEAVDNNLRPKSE
Briefly: YFP quenching assay (ANO6 ion channel activity). It is filed as cell-based. The conditions noted are these: 10 μM ionomycin; for inhibition at 1 µM: test compound 1 μM, read-out: Inhibition Level 1 μM; for inhibition at 30 µM: test compound 30 μM, read-out: Inhibition Level 30 μM. Summed up: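 FRT cells stably expressing human ANO6 and YFP-H148Q/I152L/F46L, preincubated 10 min at 40° C with compounds (1% DMSO) in PBS. Quench read every 0.4 s after injecting 140 mM SCN- with 10 μM ionomycin; % inhibition from the 3.6–7.6 s fluorescence difference, normalised to no-ionomycin (100%) and ionomycin-only (0%) wells, duplicate or triplicate.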

For assay [2], the target named is T1, human ANO6. Briefly: LACT C2 assay (phosphatidylserine scramblase function assay). It is filed as cell-based. The conditions noted are these: FRT cells expressing human ANO6, 10 μM ionomycin; for inhibition at 1 µM: test compound 1 μM, read-out: Inhibition Level 1 μM; for inhibition at 0.1 µM: test compound 100 nM, read-out: Inhibition Level 100 nM. The procedure, abridged:
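FRT cells stably expressing human ANO6 were pretreated with compound (1% DMSO) for 10 min, then stimulated with 10 μM ionomycin for 10 min. Surface phosphatidylserine was stained with 500 nM Lact-C2-GFP and quantified by imaging. Inhibition was scaled between unstimulated (100%) and ionomycin-only (0%) controls, averaged over triplicates.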

Bounds are passed on as bounds.

For the compound `CCC(CC)NC(=O)c1cccc(Nc2ccc(-c3ccccc3)nn2)c1` [Compound 66, N-(pentan-3-yl)-3-[(6-phenylpyridazin-3-yl)amino]benzamide], the figures for the inhibition at 1 µM in assay [1] and in assay [2] were 30 to 60% and less than 30%, respectively.

For the compound `Cc1ccc(CNC(=O)c2cccc(Nc3cnc(-c4cccc(F)c4)cn3)c2)o1` [Compound 58, 3-{[5-(3-fluorophenyl)pyrazin-2-yl]amino}-N-[(5-methylfuran-2-yl)methyl]benzamide], the inhibition at 1 µM in assay [1] is not below 60%; in assay [2] it was less than 30%.

As to `Cc1cccc(CNC(=O)c2cccc(Nc3ccc(-c4ccccc4)nn3)c2)c1` [Compound A50], in assay [1], the inhibition at 1 µM is not below 60% and the inhibition at 30 µM was not below 60%. Further, in assay [2], the inhibition at 0.1 µM is less than 30% and the inhibition at 1 µM was in the range of 30 to 60%.

In the case of `COc1cccc(CCNC(=O)c2cccc(Nc3ncc(-c4cccc(F)c4)cn3)c2)c1` [Compound 78, 3-{[5-(3-fluorophenyl)pyrimidin-2-yl]amino}-N-[2-(3-methoxyphenyl)ethyl]benzamide], the inhibition at 1 µM in assay [1] was 30 to 60%. In addition, in assay [2], the inhibition at 0.1 µM is 30 to 60% and the inhibition at 1 µM is not below 60%.

Turning to `Cc1cccc(CNC(=O)c2cccc(Nc3ccc(-c4ccc(F)cc4)nn3)c2)c1` [Compound A5], in assay [1], the inhibition at 1 µM was not below 60% and the inhibition at 30 µM was not below 60%. In assay [2], the inhibition at 0.1 µM is less than 30% and the inhibition at 1 µM is less than 30%.

With `CC(C)CCNC(=O)c1cccc(Nc2ccc(-c3ccc(F)cc3)nn2)c1` [Compound A13], in assay [1], the inhibition at 1 µM is not below 60% and the inhibition at 30 µM was not below 60%. Moreover, in assay [2], the inhibition at 0.1 µM is less than 30% and the inhibition at 1 µM was in the range of 30 to 60%.

As for `Cc1ccccc1CNC(=O)c1cccc(Nc2ccc(-c3ccc(F)cc3)nn2)c1` [Compound A35], in assay [1], the inhibition at 1 µM is not below 60% and the inhibition at 30 µM is not below 60%. Also, in assay [2], the inhibition at 0.1 µM was less than 30% and the inhibition at 1 µM is less than 30%.

For `Cc1ccc(CNC(=O)c2cccc(Nc3ccc(-c4ccsc4)nn3)c2)o1` [Compound 73, N-[(5-methylfuran-2-yl)methyl]-3-{[6-(thiophen-3-yl)pyridazin-3-yl]amino}benzamide], the inhibition at 1 µM in assay [1] and in assay [2] was not below 60% throughout. Also, the inhibition at 0.1 µM in assay [2] was less than 30%.

`O=C(NC1CCN(Cc2ccccc2)CC1)c1cccc(Nc2ccc(-c3ccccc3)nn2)c1` [Compound A73]: in assay [1], the inhibition at 1 µM is not below 60% and the inhibition at 30 µM was not below 60%. Further, in assay [2], the inhibition at 0.1 µM is less than 30% and the inhibition at 1 µM was in the range of 30 to 60%.

As for `Cc1ccc(CNC(=O)c2cccc(Nc3ccc(-c4ccccc4)nn3)c2)o1` [Compound A8], in assay [1], the inhibition at 1 µM is not below 60% and the inhibition at 30 µM was not below 60%. Besides, in assay [2], the inhibition at 0.1 µM was less than 30% and the inhibition at 1 µM is less than 30%.

For `O=C(NCc1ccccc1)c1cccc(Nc2ccc(-c3cccc(F)c3)nn2)c1` [Compound A34], in assay [1], the inhibition at 1 µM was not below 60% and the inhibition at 30 µM is not below 60%. In addition, in assay [2], the inhibition at 0.1 µM was less than 30% and the inhibition at 1 µM was less than 30%.

In the case of `CCOCCCNC(=O)c1cccc(Nc2ccc(-c3ccccc3)nn2)c1` [Compound A67], in assay [1], the inhibition at 1 µM is not below 60% and the inhibition at 30 µM is not below 60%. For the same compound, in assay [2], the inhibition at 0.1 µM is less than 30% and the inhibition at 1 µM was less than 30%.

Take `O=C(NCCc1cccc(F)c1)c1cccc(Nc2ncc(-c3ccccc3)cn2)c1` [Compound 90, N-[2-(3-fluorophenyl)ethyl]-3-[(5-phenylpyrimidin-2-yl)amino]benzamide]: the inhibition at 1 µM in assay [1] is not below 60%; in assay [2], 30 to 60%.

In the case of `O=C(NCCCc1ccccc1)c1cccc(Nc2cnc(-c3ccccc3)cn2)c1` [Compound 54, N-(3-phenylpropyl)-3-[(5-phenylpyrazin-2-yl)amino]benzamide], the inhibition at 1 µM in assay [1] is not below 60%; in assay [2], less than 30%.

As to `CCCCNC(=O)c1cccc(Nc2ccc(-c3ccc(F)cc3)nn2)c1` [Compound A10], in assay [1], the inhibition at 1 µM is not below 60% and the inhibition at 30 µM was not below 60%. Also, in assay [2], the inhibition at 0.1 µM was less than 30% and the inhibition at 1 µM is less than 30%.

With `Cc1ccc(CNC(=O)c2cccc(Nc3ccc(-c4cccnc4)nn3)c2)o1` [Compound 10, N-[(5-methylfuran-2-yl)methyl]-3-{[6-(pyridin-3-yl)pyridazin-3-yl]amino}benzamide], in assay [1], the inhibition at 1 µM is not below 60% and the inhibition at 30 µM is not below 60%. Moreover, in assay [2], the inhibition at 1 µM is less than 30%.

On to `O=C(NCC1CCCCC1)c1cccc(Nc2ccc(-c3ccccc3)nn2)c1` [Compound 31, N-(cyclohexylmethyl)-3-[(6-phenylpyridazin-3-yl)amino]benzamide], for which, in assay [1], the inhibition at 1 µM is not below 60% and the inhibition at 30 µM is not below 60%. Moreover, in assay [2], the inhibition at 0.1 µM was less than 30% and the inhibition at 1 µM was not below 60%.

`CC(C)CNC(=O)c1cccc(Nc2ccc(-c3ccc(F)cc3)nn2)c1` [Compound A11]: in assay [1], the inhibition at 1 µM is not below 60% and the inhibition at 30 µM is not below 60%. Also, in assay [2], the inhibition at 0.1 µM was less than 30% and the inhibition at 1 µM was less than 30%.

For `O=C(NCCC1=CCCCC1)c1cccc(Nc2ccc(-c3ccccc3)nn2)c1` [Compound A40], in assay [1], the inhibition at 1 µM was not below 60% and the inhibition at 30 µM was not below 60%. Also, in assay [2], the inhibition at 0.1 µM is less than 30% and the inhibition at 1 µM was not below 60%.

`CC(C)NC(=O)c1cccc(Nc2ccc(-c3ccccc3)nn2)c1` [Compound A12]: in assay [1], the inhibition at 1 µM was not below 60% and the inhibition at 30 µM was not below 60%. Moreover, in assay [2], the inhibition at 0.1 µM was less than 30% and the inhibition at 1 µM was less than 30%.

`Cc1ccc(CNC(=O)c2cccc(Nc3ccc(-c4ccc(Cl)cc4)nn3)c2)o1` [Compound 75, 3-{[6-(4-chlorophenyl)pyridazin-3-yl]amino}-N-[(5-methylfuran-2-yl)methyl]benzamide]: the inhibition at 1 µM in assay [1] and in assay [2] was 30 to 60% in each case.

Consider `CNC(=O)c1cccc(Nc2ccc(-c3ccccc3)nn2)c1` [Compound 41, N-methyl-3-[(6-phenylpyridazin-3-yl)amino]benzamide], for which, in assay [1], the inhibition at 1 µM was 30 to 60% and the inhibition at 30 µM is not below 60%. In addition, in assay [2], the inhibition at 1 µM was less than 30%.

As to `O=C(Nc1cccc(F)c1)c1cccc(Nc2ncc(-c3ccccc3)cn2)c1` [Compound 116, N-(3-fluorophenyl)-3-[(5-phenylpyrimidin-2-yl)amino]benzamide], in assay [1], the inhibition at 1 µM is not below 60%. In addition, in assay [2], the inhibition at 0.1 µM is less than 30% and the inhibition at 1 µM is not below 60%.

Consider `Cc1ccc(CNC(=O)c2cccc(Nc3ncc(-c4ccccc4)cn3)c2)o1` [Compound 2, N-[(5-methylfuran-2-yl)methyl]-3-[(5-phenylpyrimidin-2-yl)amino]benzamide], for which, in assay [1], the inhibition at 1 µM was in the range of 30 to 60% and the inhibition at 30 µM is not below 60%. In assay [2], the inhibition at 0.1 µM is less than 30% and the inhibition at 1 µM is not below 60%.

As for `Cc1ccc(CNC(=O)c2cccc(Nc3ccc(-c4cccc(F)c4)nn3)c2)o1` [Compound A87], the inhibition at 1 µM in assay [1] was not below 60%; in assay [2], 30 to 60%.

Take `COc1ccc(CNC(=O)c2cccc(Nc3ccc(-c4ccccc4)nn3)c2)cc1` [Compound A77]: in assay [1], the inhibition at 1 µM is not below 60% and the inhibition at 30 µM is not below 60%. Further, in assay [2], the inhibition at 0.1 µM was less than 30% and the inhibition at 1 µM was less than 30%.

`O=C(NCc1ccsc1)c1cccc(Nc2ccc(-c3ccccc3)nn2)c1` [Compound 44, 3-[(6-phenylpyridazin-3-yl)amino]-N-[(thiophen-3-yl)methyl]benzamide]: the inhibition at 1 µM in assay [1] was not below 60%; in assay [2] it was less than 30%.

The values are drawn from patent US20230080054A1 (ILDONG PHARMACEUTICAL CO., LTD., priority 2021, published 2023).
